Results as given in PMC11243320, “Tailoring Fibroblast-Activation Protein Targeting for Theranostics: A Comparative Preclinical Evaluation of the ^68Ga- and ^177Lu-Labeled Monomeric and Dimeric Fibroblast-Activation Protein Inhibitors DOTA.SA.FAPi and DOTAGA.(SA.FAPi)2” (Molecules, 2024).

System: CAFs
Experiment: Internalization studies in CAFs
Format: cell-based, human
Conditions: 37 °C
Description: For saturation studies, CAFs were incubated with increasing concentrations of the radiotracers (0.1–10 nM). For internalization studies, approximately 2.5 pmol of the radiotracers were added to CAFs followed by incubation for 15, 30, 60, 90, 120, 180 and 240 min for the ^68Ga-labeled or 30, 60, 120, 240 and 360 min for the ^177Lu-labeled radiotracers at 37 °C, 5% CO2. For the externalization studies, approximately 2.5 pmol of the ^177Lu-labeled radiotracers were added to CAFs followed by incubation for 2 h at 37 °C, 5% CO2. Afterward, the amount of the externalized activity from the CAFs was determined at 0, 10, 20, 30, 60, 120, 240, and 1440 min (Supplemental Data).
Saturation Binding Studies […]
for 0.5, 1, 2, 4 and 6 h at 37 °C, 5% CO2 for the 177Lu-labeled tracers. […] The radioactivity of the culture medium, the receptor bound, and the internal-ized fractions were measured in a γ-counter. […]
The radioactivity of the culture medium, the receptor bound , the internalized and the externalized fractions were measured in a γ -counter. The externalized fraction of radioactivity was ex-pressed as the percentage of the total internalized amount. […]

SMILES	Total cell associated uptake (% of total applied radioactivity) (6 h) [%]	Total cell associated uptake (% of total applied radioactivity) (4 h) [%]
N#C[C@@H]1CC(F)(F)CN1C(=O)CNC(=O)c1ccnc2ccc(OCCCCNc3c(NCCNC(=O)CN4CCN(CC(=O)[O-])CCN(CC(=O)[O-])CCN(CC(=O)[O-])CC4)c(=O)c3=O)cc12.[177Lu+3] [[^177Lu]Lu-DOTA.SA.FAPi]	21.1 ± 1.1	–
N#C[C@@H]1CC(F)(F)CN1C(=O)CNC(=O)c1ccnc2ccc(OCCCCNc3c(NCCNC(=O)CN4CCN(CC(=O)[O-])CCN(CC(=O)[O-])CCN(CC(=O)[O-])CC4)c(=O)c3=O)cc12.[68Ga+3] [[^68Ga]Ga-DOTA.SA.FAPi]	–	21.9 ± 1.2
